Tests used:
[1] = target: T1, KDR (Homo sapiens, UniProt P35968); experiment: KDR autophosphorylation ELISA in HUVEC cells; assay type: cell-based; design: endogenous in cells; host or cells: HUVEC (Lonza #C2519A); conditions: cellular activity, VEGF165-stimulated, phospho-KDR ELISA
Description: Human umbilical vein endothelial cells or HUVEC (Lonza #C2519A) were seeded at 2×10^4 cells/well onto 96-well plates (Corning #3904), in EGM-2 growth medium (Lonza #CC-3162) containing 1% Penicillin Streptomycin (Thermo Fisher #15140-122). HUVEC cells were incubated at 37° C., 5% CO2 for 24 h and then starved for 24 h in serum-free EBM-2 basal medium (Lonza #CC-3156) containing 1% Penicillin Streptomycin. Test compounds were serially diluted to produce an 8-point dose curve in fresh serum-free medium to a final concentration of 0.3% DMSO (vehicle) and added to the cells and incubated for 1 h. Cells were then stimulated with 100 ng/mL recombinant human VEGF165 (R&D Systems #293-VE-500) for 5 min, washed with cold PBS, and immediately lysed with 130 μL of cold 1× lysis buffer [20 mM Tris, 137 mM sodium chloride, 2 mM EDTA, 10% glycerol, 1% NP-40 alternative, 1 mM activated sodium orthovanadate, 1 mM PefaBloc SC (Sigma-Aldrich #11429868001), protease/phosphatase inhibitor tablet (Thermo Fisher #A32959)]. Lysates were collected and 100 μL/well added into the human phospho-KDR DuoSet IC ELISA (R&D Systems #DYC1766-2). Assay was performed according to manufacturer's instructions and sample phospho-KDR concentrations were extrapolated using human phospho-KDR control (R&D Systems #841421) as a standard. Positive control wells (100% activity) contained VEGF165-stimulated, DMSO-treated cell lysates. Negative control wells (0% activity) contained non-stimulated cell lysates. IC50 values were calculated by nonlinear regression analysis using a 4-parameter logistic curve fit in ActivityBase XE (IDBS).
Target sequence in this assay (P35968 20-1356): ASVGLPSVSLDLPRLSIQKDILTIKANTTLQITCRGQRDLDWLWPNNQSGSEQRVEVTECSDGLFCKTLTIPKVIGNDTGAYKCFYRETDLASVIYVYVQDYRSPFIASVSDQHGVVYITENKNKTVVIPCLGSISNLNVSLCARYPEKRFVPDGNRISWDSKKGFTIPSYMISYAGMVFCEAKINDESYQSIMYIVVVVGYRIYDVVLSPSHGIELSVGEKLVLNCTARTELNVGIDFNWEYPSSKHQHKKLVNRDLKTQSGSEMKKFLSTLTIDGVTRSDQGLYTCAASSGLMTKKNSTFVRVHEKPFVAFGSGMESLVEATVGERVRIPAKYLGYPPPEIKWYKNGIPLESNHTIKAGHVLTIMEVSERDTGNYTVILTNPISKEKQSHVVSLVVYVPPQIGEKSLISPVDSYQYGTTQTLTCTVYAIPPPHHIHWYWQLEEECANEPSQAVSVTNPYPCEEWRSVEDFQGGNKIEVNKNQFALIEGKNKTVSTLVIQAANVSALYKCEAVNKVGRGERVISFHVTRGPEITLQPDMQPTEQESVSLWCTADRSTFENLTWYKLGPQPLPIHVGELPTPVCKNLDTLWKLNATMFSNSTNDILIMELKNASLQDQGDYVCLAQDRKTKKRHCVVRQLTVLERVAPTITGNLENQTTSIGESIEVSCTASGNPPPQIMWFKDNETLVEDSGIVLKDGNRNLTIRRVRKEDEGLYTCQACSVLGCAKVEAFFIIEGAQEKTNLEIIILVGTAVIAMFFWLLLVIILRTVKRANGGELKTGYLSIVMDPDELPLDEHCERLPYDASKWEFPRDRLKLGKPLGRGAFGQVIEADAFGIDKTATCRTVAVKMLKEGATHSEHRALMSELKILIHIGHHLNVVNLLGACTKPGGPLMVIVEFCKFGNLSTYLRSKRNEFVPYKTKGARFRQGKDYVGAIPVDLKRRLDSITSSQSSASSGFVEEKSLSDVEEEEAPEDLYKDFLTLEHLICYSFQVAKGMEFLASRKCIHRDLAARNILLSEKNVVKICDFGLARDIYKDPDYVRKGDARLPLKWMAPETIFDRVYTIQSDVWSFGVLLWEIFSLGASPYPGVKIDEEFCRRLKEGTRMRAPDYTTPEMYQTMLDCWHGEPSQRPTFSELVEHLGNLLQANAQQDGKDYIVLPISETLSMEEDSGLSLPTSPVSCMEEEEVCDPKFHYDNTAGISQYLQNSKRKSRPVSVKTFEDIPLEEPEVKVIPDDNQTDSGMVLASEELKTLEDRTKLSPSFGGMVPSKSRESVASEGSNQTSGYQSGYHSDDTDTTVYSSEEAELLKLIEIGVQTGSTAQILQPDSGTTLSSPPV

[2] = target: T1, KDR; experiment: Human KDR kinase assay (33P-phosphoryl transfer radiometric, KinaseProfiler); design: Human KDR (residues K790-V1356, 55 nM); purchased Eurofins Pharma Discovery Services UK Limited (KinaseProfiler service); conditions: biochemical activity; 10 μM ATP
Description: (§1) Kinase activity and compound inhibition were investigated using the ^33P-Phosphoryl transfer radiometric kinase assay, performed using the KinaseProfiler™ service of Eurofins Pharma Discovery Services UK Limited. Dose-response experiments were performed using nine compound concentrations in a 96-well microtiter plate. For each assay, all compounds were prepared to a 50× final assay concentration (50 μM) in 100% DMSO, then diluted in a half-log series, with the final top concentration at 1 μM. This working stock of the compound was added to the assay well as the first component in the reaction, followed by the remaining components as detailed in the following assay protocols below. The positive control wells (100% kinase activity) contain all components of the reaction including 2% DMSO (control for solvent effects), except the compound of interest. Blank wells contain all components of the reaction, with the reference inhibitor, staurosporine. This reference compound was used to abolish kinase activity and generated the 0% kinase activity base-line. IC50 values were calculated by nonlinear regression analysis using the sigmoidal dose-response (variable slope) curve fit on XLFit version 5.3 (ID Business Solutions).
(§2) Human KDR (residues K790-V1356, 55 nM) was incubated with 8 mM MOPS pH 7.0, 0.2 mM EDTA, 0.33 mg/mL myelin basic protein, 10 mM magnesium acetate, and 10 μM [γ-^33P-ATP]. The reaction was initiated by the addition of the Mg/ATP mix. After incubation for 40 minutes at room temperature, the reaction was stopped by the addition of phosphoric acid to a concentration of 0.5%. A reaction aliquot of 10 μL was then spotted onto a P30 filtermat and washed four times for 4 minutes in 0.425% phosphoric acid and once in methanol prior to drying and scintillation counting. Incorporated ^33P was measured using the Wallac Microbeta scintillation counter (Perkin Elmer).
Target sequence in this assay (P35968 790-1356): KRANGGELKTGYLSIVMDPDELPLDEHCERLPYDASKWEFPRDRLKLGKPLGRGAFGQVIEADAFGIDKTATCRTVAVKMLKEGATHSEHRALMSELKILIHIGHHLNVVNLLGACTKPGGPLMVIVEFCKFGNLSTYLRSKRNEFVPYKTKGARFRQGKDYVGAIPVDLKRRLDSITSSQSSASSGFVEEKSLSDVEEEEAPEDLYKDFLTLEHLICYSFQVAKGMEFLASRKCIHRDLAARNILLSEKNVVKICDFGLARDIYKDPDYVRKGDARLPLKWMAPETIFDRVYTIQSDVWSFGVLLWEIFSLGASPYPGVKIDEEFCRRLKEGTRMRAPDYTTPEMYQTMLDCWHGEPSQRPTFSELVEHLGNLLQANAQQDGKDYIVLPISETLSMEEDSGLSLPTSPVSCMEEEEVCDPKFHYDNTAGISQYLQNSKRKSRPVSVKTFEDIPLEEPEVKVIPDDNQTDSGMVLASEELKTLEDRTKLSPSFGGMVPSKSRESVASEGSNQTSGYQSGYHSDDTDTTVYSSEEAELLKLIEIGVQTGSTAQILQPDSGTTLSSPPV

[3] = target: Met (Homo sapiens, UniProt P08581); experiment: Human Met kinase assay (33P-phosphoryl transfer radiometric, KinaseProfiler); design: Human Met (residues R974-S1390 with A1209G and V1290L, 3.4 nM); purchased Eurofins Pharma Discovery Services UK Limited (KinaseProfiler service); conditions: biochemical activity; 10 μM ATP; read-out: c-Met IC50
Met, sequence (P08581 974-1390): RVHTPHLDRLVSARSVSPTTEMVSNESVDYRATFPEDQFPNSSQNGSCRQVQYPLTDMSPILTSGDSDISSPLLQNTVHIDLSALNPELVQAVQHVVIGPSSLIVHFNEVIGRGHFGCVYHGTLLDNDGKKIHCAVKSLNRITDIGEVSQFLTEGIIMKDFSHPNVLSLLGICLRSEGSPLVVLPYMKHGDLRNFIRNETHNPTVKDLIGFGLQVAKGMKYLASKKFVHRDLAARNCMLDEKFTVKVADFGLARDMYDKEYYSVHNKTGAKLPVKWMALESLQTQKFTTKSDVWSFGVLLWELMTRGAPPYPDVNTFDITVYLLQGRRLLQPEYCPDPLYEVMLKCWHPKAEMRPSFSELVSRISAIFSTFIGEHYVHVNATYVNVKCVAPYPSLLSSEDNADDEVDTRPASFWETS
Description: as §1
as §2, with “Met” for “KDR”, “R974-S1390 with A1209G and V1290L, 3.4” for “K790-V1356, 55”, “250 μM KKKGQEEEYVFIE, 1 mM sodium orthovanadate, 5 mM […],” for “0.33 mg/mL myelin basic protein,”

SMILES | IC50 [1] [nM] | IC50 [2] [nM] | IC50 [3] [nM]
Cn1ccc(-c2ccc3c(Oc4ccc(NC(=O)C5(C(=O)Nc6ccc(F)cc6)CC5)cc4)ccnc3c2)n1 [Compound 17, 1-N′-(4-Fluorophenyl)-1-N-[4-[7-(1-methylpyrazol-3-yl)quinolin-4-yl]oxyphenyl]cyclopropane-1,1-dicarboxamide] | ≤ 10 | 10 to 100 | ≤ 10
O=C(Nc1ccc(F)cc1)C1(C(=O)Nc2ccc(Oc3ccnc4cc(-c5cnn(CC(F)(F)F)c5)ccc34)cc2)CC1 [Compound 16, 1-N′-(4-Fluorophenyl)-1-N-[4-[7-[1-(2,2,2-trifluoroethyl)pyrazol-4-yl]quinolin-4-yl]oxyphenyl]cyclopropane-1,1-dicarboxamide] | ≤ 10 | 10 to 100 | 10 to 100
CC(C)(C)n1cc(-c2ccc3c(Oc4ccc(NC(=O)C5(C(=O)Nc6ccc(F)cc6)CC5)cc4)ccnc3c2)cn1 [Compound 23, 1-N-[4-[7-(1-tert-Butylpyrazol-4-yl)quinolin-4-yl]oxyphenyl]-1-N′-(4-fluorophenyl)cyclopropane-1,1-dicarboxamide] | 10 to 100 | 10 to 100 | 10 to 100
O=C(Nc1ccc(F)cc1)C1(C(=O)Nc2ccc(Oc3ccnc4cc(-c5ccncc5)ccc34)cc2)CC1 [Compound 26, 1-N′-(4-Fluorophenyl)-1-N-[4-(7-pyridin-4-ylquinolin-4-yl)oxyphenyl]cyclopropane-1,1-dicarboxamide] | ≤ 10 | 10 to 100 | ≤ 10
O=C(Nc1ccc(F)cc1)C1(C(=O)Nc2ccc(Oc3ccnc4cc(-c5cnn(C(F)F)c5)ccc34)cc2)CC1 [Compound 13, 1-N-[4-[7-[1-(Difluoromethyl)pyrazol-4-yl]quinolin-4-yl]oxyphenyl]-1-N′-(4-fluorophenyl)cyclopropane-1,1-dicarboxamide] | ≤ 10 | 10 to 100 | ≤ 10
CN1CCC(n2cc(-c3ccc4c(Oc5ccc(NC(=O)C6(C(=O)Nc7ccc(F)cc7)CC6)cc5)ccnc4c3)cn2)CC1 [Compound 61, 1-N′-(4-Fluorophenyl)-1-N-[4-[7-[1-(1-methylpiperidin-4-yl)pyrazol-4-yl]quinolin-4-yl]oxyphenyl]cyclopropane-1,1-dicarboxamide] | 10 to 100 | 10 to 100 | ≤ 10
COc1cncc(-c2ccc3c(Oc4ccc(NC(=O)C5(C(=O)Nc6ccc(F)cc6)CC5)cc4)ccnc3c2)c1 [Compound 47, 1-N′-(4-Fluorophenyl)-1-N-[4-[7-(5-methoxypyridin-3-yl)quinolin-4-yl]oxyphenyl]cyclopropane-1,1-dicarboxamide] | 100 to 300 |  | 
N#Cc1cncc(-c2ccc3c(Oc4ccc(NC(=O)C5(C(=O)Nc6ccc(F)cc6)CC5)cc4)ccnc3c2)c1 [Compound 40, 1-N-[4-[7-(5-Cyanopyridin-3-yl)quinolin-4-yl]oxyphenyl]-1-N′-(4-fluorophenyl)cyclopropane-1,1-dicarboxamide] | 10 to 100 |  | 
N#Cc1ccc(-c2ccc3c(Oc4ccc(NC(=O)C5(C(=O)Nc6ccc(F)cc6)CC5)cc4)ccnc3c2)cn1 [Compound 42, 1-N-[4-[7-(6-Cyanopyridin-3-yl)quinolin-4-yl]oxyphenyl]-1-N′-(4-fluorophenyl)cyclopropane-1,1-dicarboxamide] | 10 to 100 |  | 
O=C(Nc1ccc(F)cc1)C1(C(=O)Nc2ccc(Oc3ccnc4cc(-c5ccc(F)nc5)ccc34)cc2)CC1 [Compound 41, 1-N′-(4-Fluorophenyl)-1-N-[4-[7-(6-fluoropyridin-3-yl)quinolin-4-yl]oxyphenyl]cyclopropane-1,1-dicarboxamide] | 10 to 100 |  | 

Second part, the compound after the results:

IC50 [1] [nM] | IC50 [2] [nM] | IC50 [3] [nM] | SMILES
10 to 100 | 10 to 100 | ≤ 10 | Cn1ccnc1-c1ccc2c(Oc3ccc(NC(=O)C4(C(=O)Nc5ccc(F)cc5)CC4)cc3)ccnc2c1 [Compound 75, 1-N′-(4-Fluorophenyl)-1-N-[4-[7-(1-methylimidazol-2-yl)quinolin-4-yl]oxyphenyl]cyclopropane-1,1-dicarboxamide]
100 to 300 | 10 to 100 | ≤ 10 | O=C(Nc1ccc(F)cc1)C1(C(=O)Nc2ccc(Oc3ccnc4cc(C5CCNC5)ccc34)cc2)CC1 (stereo not drawn) [Compound 83, 1-N′-(4-Fluorophenyl)-1-N-[4-(7-pyrrolidin-3-ylquinolin-4-yl)oxyphenyl]cyclopropane-1,1-dicarboxamide]
> 300 | 10 to 100 | ≤ 10 | Cn1cc(-c2ccc3c(Oc4ccc(NC(=O)C5(C(=O)N6CCc7cc(F)ccc76)CC5)cc4)ccnc3c2)cn1 [Compound 81, 1-(5-Fluoro-2,3-dihydroindole-1-carbonyl)-N-[4-[7-(1-methylpyrazol-4-yl)quinolin-4-yl]oxyphenyl]cyclopropane-1-carboxamide]
≤ 10 | 10 to 100 | ≤ 10 | O=C(Nc1ccc(F)cc1)C1(C(=O)Nc2ccc(Oc3ccnc4cc(-c5cnc[nH]5)ccc34)cc2)CC1 [Compound 72, 1-N′-(4-Fluorophenyl)-1-N-[4-[7-(1H-imidazol-5-yl)quinolin-4-yl]oxyphenyl]cyclopropane-1,1-dicarboxamide]
≤ 10 |  |  | O=C(Nc1ccc(F)cc1)C1(C(=O)Nc2ccc(Oc3ccnc4cc(-c5cncs5)ccc34)cc2)CC1 [Compound 116, 1-N′-(4-Fluorophenyl)-1-N-[4-[7-(1,3-thiazol-5-yl)quinolin-4-yl]oxyphenyl]cyclopropane-1,1-dicarboxamide]
≤ 10 |  |  | O=C(Nc1ccc(F)cc1)C1(C(=O)Nc2ccc(Oc3ccnc4cc(-c5cccnc5)ccc34)c(F)c2)CC1 [Compound 113, 1-N-(4-Fluorophenyl)-1-N′-[3-fluoro-4-(7-pyridin-3-ylquinolin-4-yl)oxyphenyl]cyclopropane-1,1-dicarboxamide]
10 to 100 |  |  | Cc1cc2c(Oc3ccc(NC(=O)C4(C(=O)Nc5ccc(F)cc5)CC4)cc3F)ccnc2cc1-c1ncc[nH]1 [Compound 122, 1-N′-[3-Fluoro-4-[7-(1H-imidazol-2-yl)-6-methylquinolin-4-yl]oxyphenyl]-1-N-(4-fluorophenyl)cyclopropane-1,1-dicarboxamide]
10 to 100 |  |  | Cc1cc2c(Oc3cc(F)c(NC(=O)C4(C(=O)Nc5ccc(F)cc5)CC4)cc3F)ccnc2cc1-c1ncc[nH]1 [Compound 121, 1-N′-[2,5-Difluoro-4-[7-(1H-imidazol-2-yl)-6-methylquinolin-4-yl]oxyphenyl]-1-N-(4-fluorophenyl)cyclopropane-1,1-dicarboxamide]
10 to 100 |  |  | CN1CCN(c2cc(-c3ccc4c(Oc5ccc(NC(=O)C6(C(=O)Nc7ccc(F)cc7)CC6)cc5)ccnc4c3)ccn2)CC1 [Compound 111, 1-N′-(4-Fluorophenyl)-1-N-[4-[7-[2-(4-methylpiperazin-1-yl)pyridin-4-yl]quinolin-4-yl]oxyphenyl]cyclopropane-1,1-dicarboxamide]
